Measurements taken from US12122763B2, “Substituted piperidines for androgen receptor degradation” (UBIX THERAPEUTICS, INC., priority 2020, dated 2024).

Target: T1, Androgen Receptor (AR) protein (Homo sapiens, UniProt P10275, T878A)
T1 construct: endogenous in cells; host or cells: LNCaP
Test: Androgen Receptor (AR) protein degradation assay in LNCaP cells, western blotting
Format: cell-based
Conditions: 20 h; for inhibition at 0.01 µM: 0.01 μM compound; for inhibition at 0.1 µM: 0.1 μM compound; for inhibition at 1 µM: 1 μM compound
In short: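 AR protein level was detected by western blot (ECL) against GAPDH or β-actin controls, with 8 μg lysate protein loaded per lane after BCA quantification. Lysates came from LNCaP cells exposed to test compound for 20 h, following 3 days of growth in RPMI/10% FBS.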

T1 sequence (P10275 whole entry T878A): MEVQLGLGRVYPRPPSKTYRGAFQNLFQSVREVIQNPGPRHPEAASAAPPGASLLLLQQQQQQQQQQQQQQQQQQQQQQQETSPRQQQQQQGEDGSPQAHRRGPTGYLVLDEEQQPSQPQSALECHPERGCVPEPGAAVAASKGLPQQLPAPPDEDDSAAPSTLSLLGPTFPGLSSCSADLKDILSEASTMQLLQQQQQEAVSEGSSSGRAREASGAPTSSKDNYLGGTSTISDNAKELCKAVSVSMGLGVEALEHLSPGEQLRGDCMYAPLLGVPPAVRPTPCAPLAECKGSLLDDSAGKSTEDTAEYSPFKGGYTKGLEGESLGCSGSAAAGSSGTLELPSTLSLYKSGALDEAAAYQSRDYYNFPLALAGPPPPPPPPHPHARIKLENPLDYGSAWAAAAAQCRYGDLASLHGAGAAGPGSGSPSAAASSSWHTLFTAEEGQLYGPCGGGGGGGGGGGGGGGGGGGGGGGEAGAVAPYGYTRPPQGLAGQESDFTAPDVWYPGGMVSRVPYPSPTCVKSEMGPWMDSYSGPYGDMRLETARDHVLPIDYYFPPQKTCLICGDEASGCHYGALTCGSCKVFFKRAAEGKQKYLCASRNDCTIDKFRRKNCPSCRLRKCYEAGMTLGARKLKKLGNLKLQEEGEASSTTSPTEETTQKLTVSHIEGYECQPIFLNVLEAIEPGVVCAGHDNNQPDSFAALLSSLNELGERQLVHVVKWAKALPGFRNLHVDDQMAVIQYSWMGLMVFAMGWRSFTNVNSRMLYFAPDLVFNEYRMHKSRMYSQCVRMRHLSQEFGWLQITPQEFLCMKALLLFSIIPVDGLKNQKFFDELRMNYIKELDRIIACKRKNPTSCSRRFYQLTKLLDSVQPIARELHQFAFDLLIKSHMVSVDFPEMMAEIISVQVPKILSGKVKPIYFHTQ
T1 sequence (Q96SW2 whole entry partner): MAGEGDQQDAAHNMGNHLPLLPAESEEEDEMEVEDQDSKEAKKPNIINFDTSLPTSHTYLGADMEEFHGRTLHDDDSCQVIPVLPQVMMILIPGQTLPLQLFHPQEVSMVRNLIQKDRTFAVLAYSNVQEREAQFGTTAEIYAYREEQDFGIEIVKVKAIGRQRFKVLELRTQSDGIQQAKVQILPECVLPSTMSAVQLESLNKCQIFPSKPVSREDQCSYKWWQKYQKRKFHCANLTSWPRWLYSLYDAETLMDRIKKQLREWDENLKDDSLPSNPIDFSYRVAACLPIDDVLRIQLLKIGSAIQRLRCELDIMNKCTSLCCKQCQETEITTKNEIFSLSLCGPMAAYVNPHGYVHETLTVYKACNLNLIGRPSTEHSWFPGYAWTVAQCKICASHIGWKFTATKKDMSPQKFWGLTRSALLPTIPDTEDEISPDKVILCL

| SMILES | inhibition at 0.01 µM | inhibition at 0.1 µM | inhibition at 1 µM |
| --- | --- | --- | --- |
| N#Cc1ccc(N2CCC(C(=O)Nc3ccc(N4CCC(OCCN5CCN(c6ccc7c(c6)C(=O)N(C6CCC(=O)NC6=O)C7=O)CC5)CC4)cn3)CC2)cc1Cl (stereo not drawn) [Example 151, 1-(3-chloro-4-cyanophenyl)-N-(5-(4-(2-(4-(2-(2,6-dioxopiperidin-3-yl)-1,3-dioxoisoindolin-5-yl)piperazin-1-yl)ethoxy)piperidin-1-yl)pyridin-2-yl)piperidine-4-carboxamide] | -14% | 76% | 92% |
| N#Cc1ccc(N2CCC(C(=O)Nc3ccc(N4CCC(OCCN5CCN(c6cccc7c6C(=O)N(C6CCC(=O)NC6=O)C7=O)CC5)CC4)cn3)CC2)cc1C(F)(F)F (stereo not drawn) [Example 152, 1-(4-cyano-3-(trifluoromethyl)phenyl)-N-(5-(4-(2-(4-(2-(2,6-dioxopiperidin-3-yl)-1,3-dioxoisoindolin-4-yl)piperazin-1-yl)ethoxy)piperidin-1-yl)pyridin-2-yl)piperidine-4-carboxamide] | -46% | 28% | 29% |
| N#Cc1ccc(N2CCC(C(=O)Nc3ccc(N4CCC(O)(CCN5CCN(c6ccc7c(c6)C(=O)N(C6CCC(=O)NC6=O)C7=O)CC5)CC4)cn3)CC2)cc1C(F)(F)F (stereo not drawn) [Example 153, 1-(4-cyano-3-(trifluoromethyl)phenyl)-N-(5-(4-(2-(4-(2-(2,6-dioxopiperidin-3-yl)-1,3-dioxoisoindolin-5-yl)piperazin-1-yl)ethyl)-4-hydroxypiperidin-1-yl)pyridin-2-yl)piperidine-4-carboxamide] | 56% | 95% | 97% |
| N#Cc1ccc(N2CCC(C(=O)Nc3ccc(N4CCC(C(=O)N5CC6(CCN(c7ccc8c(c7)C(=O)N(C7CCC(=O)NC7=O)C8=O)CC6)C5)CC4)cn3)CC2)cc1C(F)(F)F (stereo not drawn) [Example 154, 1-(4-cyano-3-(trifluoromethyl)phenyl)-N-(5-(4-(7-(2-(2,6-dioxopiperidin-3-yl)-1,3-dioxoisoindolin-5-yl)-2,7-diazaspiro[3.5]nonane-2-carbonyl)piperidin-1-yl)pyridin-2-yl)piperidine-4-carboxamide] | 26% | 86% | 91% |
| N#Cc1ccc(N2CCC(C(=O)Nc3cnc(N4CCC(CN5CC6(CCN(c7ccc8c(c7)C(=O)N(C7CCC(=O)NC7=O)C8=O)CC6)C5)CC4)cn3)CC2)cc1C(F)(F)F (stereo not drawn) [Example 155, 1-(4-cyano-3-(trifluoromethyl)phenyl)-N-(5-(4-((7-(2-(2,6-dioxopiperidin-3-yl)-1,3-dioxoisoindolin-5-yl)-2,7-diazaspiro[3.5]nonan-2-yl)methyl)piperidin-1-yl)pyrazin-2-yl)piperidine-4-carboxamide] | 38% | 89% | 98% |
| N#Cc1ccc(N2CCC(C(=O)Nc3cnc(N4CCC(CCN5CCN(c6ccc7c(c6)C(=O)N(C6CCC(=O)NC6=O)C7=O)CC5)CC4)cn3)CC2)cc1C(F)(F)F (stereo not drawn) [Example 156, 1-(4-cyano-3-(trifluoromethyl)phenyl)-N-(5-(4-(2-(4-(2-(2,6-dioxopiperidin-3-yl)-1,3-dioxoisoindolin-5-yl)piperazin-1-yl)ethyl)piperidin-1-yl)pyrazin-2-yl)piperidine-4-carboxamide] | 35% | 76% | 96% |
| N#Cc1ccc(N2CCC(C(=O)Nc3ncc(N4CCC(CN5CCN(CC6CCN(c7ccc8c(c7)C(=O)N(C7CCC(=O)NC7=O)C8=O)CC6)CC5)CC4)cn3)CC2)cc1C(F)(F)F (stereo not drawn) [Example 157, 1-(4-cyano-3-(trifluoromethyl)phenyl)-N-(5-(4-((4-((1-(2-(2,6-dioxopiperidin-3-yl)-1,3-dioxoisoindolin-5-yl)piperidin-4-yl)methyl)piperazin-1-yl)methyl)piperidin-1-yl)pyrimidin-2-yl)piperidine-4-carboxamide] | 0% | 33% | 78% |
| N#Cc1ccc(N2CCC(C(=O)Nc3ncc(N4CCC(CN5CCN(C[C@H]6CCN(c7ccc8c(c7)C(=O)N(C7CCC(=O)NC7=O)C8=O)C6)CC5)CC4)cn3)CC2)cc1C(F)(F)F (stereo partly drawn) [Example 158, 1-(4-cyano-3-(trifluoromethyl)phenyl)-N-(5-(4-((4-(((3R)-1-(2-(2,6-dioxopiperidin-3-yl)-1,3-dioxoisoindolin-5-yl)pyrrolidin-3-yl)methyl)piperazin-1-yl)methyl)piperidin-1-yl)pyrimidin-2-yl)piperidine-4-carboxamide] | -7% | 27% | 65% |
| N#Cc1ccc(N2CCC(C(=O)Nc3ncc(N4CCC(CN5CCN(CC6CCN(c7cc8c(cc7F)C(=O)N(C7CCC(=O)NC7=O)C8=O)CC6)CC5)CC4)cn3)CC2)cc1C(F)(F)F (stereo not drawn) [Example 159, 1-(4-cyano-3-(trifluoromethyl)phenyl)-N-(5-(4-((4-((1-(2-(2,6-dioxopiperidin-3-yl)-6-fluoro-1,3-dioxoisoindolin-5-yl)piperidin-4-yl)methyl)piperazin-1-yl)methyl)piperidin-1-yl)pyrimidin-2-yl)piperidine-4-carboxamide] | -16% | -5% | 84% |
| N#Cc1ccc(N2CCC(C(=O)Nc3ncc(N4CCC(CN5CCN(C[C@H]6CCN(c7cc8c(cc7F)C(=O)N(C7CCC(=O)NC7=O)C8=O)C6)CC5)CC4)cn3)CC2)cc1C(F)(F)F (stereo partly drawn) [Example 160, 1-(4-cyano-3-(trifluoromethyl)phenyl)-N-(5-(4-((4-(((3R)-1-(2-(2,6-dioxopiperidin-3-yl)-6-fluoro-1,3-dioxoisoindolin-5-yl)pyrrolidin-3-yl)methyl)piperazin-1-yl)methyl)piperidin-1-yl)pyrimidin-2-yl)piperidine-4-carboxamide] | -19% | 4% | 71% |
| N#Cc1ccc(N2CCC(C(=O)Nc3ccc(CN4CCC(CN5CCN(c6ccc7c(c6)C(=O)N(C6CCC(=O)NC6=O)C7=O)CC5)CC4)cn3)CC2)cc1C(F)(F)F (stereo not drawn) [Example 161, 1-(4-cyano-3-(trifluoromethyl)phenyl)-N-(5-((4-((4-(2-(2,6-dioxopiperidin-3-yl)-1,3-dioxoisoindolin-5-yl)piperazin-1-yl)methyl)piperidin-1-yl)methyl)pyridin-2-yl)piperidine-4-carboxamide] | 9% | 58% | 86% |
| N#Cc1ccc(N2CCC(C(=O)Nc3ccc(CN4CCN(CC5CCN(c6ccc7c(c6)C(=O)N(C6CCC(=O)NC6=O)C7=O)CC5)CC4)cn3)CC2)cc1C(F)(F)F (stereo not drawn) [Example 162, 1-(4-cyano-3-(trifluoromethyl)phenyl)-N-(5-((4-((1-(2-(2,6-dioxopiperidin-3-yl)-1,3-dioxoisoindolin-5-yl)piperidin-4-yl)methyl)piperazin-1-yl)methyl)pyridin-2-yl)piperidine-4-carboxamide] | 62% | 95% | 97% |
| N#Cc1ccc(N2CCC(C(=O)Nc3ccc(CN4CCC(CN5CCC(Oc6ccc7c(c6)C(=O)N(C6CCC(=O)NC6=O)C7=O)CC5)CC4)cn3)CC2)cc1C(F)(F)F (stereo not drawn) [Example 163, 1-(4-cyano-3-(trifluoromethyl)phenyl)-N-(5-((4-((4-((2-(2,6-dioxopiperidin-3-yl)-1,3-dioxoisoindolin-5-yl)oxy)piperidin-1-yl)methyl)piperidin-1-yl)methyl)pyridin-2-yl)piperidine-4-carboxamide] | -14% | 60% | 78% |
| N#Cc1ccc(N2CCC(C(=O)Nc3ccc(CC4CCN(CC5CCN(c6ccc7c(c6)C(=O)N(C6CCC(=O)NC6=O)C7=O)CC5)CC4)cn3)CC2)cc1C(F)(F)F (stereo not drawn) [Example 164, 1-(4-cyano-3-(trifluoromethyl)phenyl)-N-(5-((1-((1-(2-(2,6-dioxopiperidin-3-yl)-1,3-dioxoisoindolin-5-yl)piperidin-4-yl)methyl)piperidin-4-yl)methyl)pyridin-2-yl)piperidine-4-carboxamide] | 79% | 96% | 97% |
| N#Cc1ccc(N2CCC(C(=O)Nc3ccc(CCN4CCC(CN5CCN(c6ccc7c(c6)C(=O)N(C6CCC(=O)NC6=O)C7=O)CC5)CC4)cn3)CC2)cc1C(F)(F)F (stereo not drawn) [Example 165, 1-(4-cyano-3-(trifluoromethyl)phenyl)-N-(5-(2-(4-((4-(2-(2,6-dioxopiperidin-3-yl)-1,3-dioxoisoindolin-5-yl)piperazin-1-yl)methyl)piperidin-1-yl)ethyl)pyridin-2-yl)piperidine-4-carboxamide] | 42% | 87% | 95% |
| N#Cc1ccc(N2CCC(C(=O)Nc3ccc(CCN4CCN(CC5CCN(c6ccc7c(c6)C(=O)N(C6CCC(=O)NC6=O)C7=O)CC5)CC4)cn3)CC2)cc1C(F)(F)F (stereo not drawn) [Example 166, 1-(4-cyano-3-(trifluoromethyl)phenyl)-N-(5-(2-(4-((1-(2-(2,6-dioxopiperidin-3-yl)-1,3-dioxoisoindolin-5-yl)piperidin-4-yl)methyl)piperazin-1-yl)ethyl)pyridin-2-yl)piperidine-4-carboxamide] | 69% | 96% | 97% |
| N#Cc1ccc(N2CCC(C(=O)Nc3ccc(CCN4CCC(Oc5ccc6c(c5)C(=O)N(C5CCC(=O)NC5=O)C6=O)CC4)cn3)CC2)cc1C(F)(F)F (stereo not drawn) [Example 167, 1-(4-cyano-3-(trifluoromethyl)phenyl)-N-(5-(2-(4-((2-(2,6-dioxopiperidin-3-yl)-1,3-dioxoisoindolin-5-yl)oxy)piperidin-1-yl)ethyl)pyridin-2-yl)piperidine-4-carboxamide] | 25% | 67% | 85% |
